Source: patent US12534469B2 (CHILDREN'S HOSPITAL MEDICAL CENTER, priority 2020, dated 2026)

Columns and labels:
MOLM14 D835Y cells = test: MOLM14 D835Y cell viability assay (Cell Titer Glo); type: cell-based
Method: Both cell lines have activated FLT3 receptors, each of which carry additional resistance mutations in the kinase domain (D835Y and F691L, respectively).
MOLM14 D835Y and MOLM14 F691L cells were grown in RPMI-1640 media supplemented with 20% fetal bovine serum (FBS). For viability/cytotoxicity assessments, cells were seeded into 1536-well white polystyrene tissue culture-treated Greiner plates using a Multidrop Combi dispenser (ThermoFisher), in final volume 5 μL of growth media per well, at a density of 1000 cells per well. After cell addition, 23 nL of test compound were transferred into individual wells (22 doses tested for each test compound, with a 1:2 dilution series starting at 10 μM) via a 1536 pin-tool. Bortezomib (final concentration 2.3 μM) was used as a positive control for cell cytotoxicity. Plates were incubated for 48 hours at standard incubator conditions covered by a stainless steel gasketed lid to prevent evaporation. 48 hours post compound addition, 3 μL of Cell Titer Glo (Promega) were added to each well and plates were incubated at room temperature for 15 minutes with the stainless-steel lid in place. Luminescence readings were taken using a Viewlux imager (PerkinElmer) with a 2 second exposure time per plate.

IRAK1 = target: T1, IRAK1 (Homo sapiens, UniProt P51617); test: RBC HotSpot Kinase Assay, IRAK1; type: biochemical
T1 construct: purchased Reaction Biology (RBC HotSpot Kinase Assay)
T1 sequence (P51617 whole entry): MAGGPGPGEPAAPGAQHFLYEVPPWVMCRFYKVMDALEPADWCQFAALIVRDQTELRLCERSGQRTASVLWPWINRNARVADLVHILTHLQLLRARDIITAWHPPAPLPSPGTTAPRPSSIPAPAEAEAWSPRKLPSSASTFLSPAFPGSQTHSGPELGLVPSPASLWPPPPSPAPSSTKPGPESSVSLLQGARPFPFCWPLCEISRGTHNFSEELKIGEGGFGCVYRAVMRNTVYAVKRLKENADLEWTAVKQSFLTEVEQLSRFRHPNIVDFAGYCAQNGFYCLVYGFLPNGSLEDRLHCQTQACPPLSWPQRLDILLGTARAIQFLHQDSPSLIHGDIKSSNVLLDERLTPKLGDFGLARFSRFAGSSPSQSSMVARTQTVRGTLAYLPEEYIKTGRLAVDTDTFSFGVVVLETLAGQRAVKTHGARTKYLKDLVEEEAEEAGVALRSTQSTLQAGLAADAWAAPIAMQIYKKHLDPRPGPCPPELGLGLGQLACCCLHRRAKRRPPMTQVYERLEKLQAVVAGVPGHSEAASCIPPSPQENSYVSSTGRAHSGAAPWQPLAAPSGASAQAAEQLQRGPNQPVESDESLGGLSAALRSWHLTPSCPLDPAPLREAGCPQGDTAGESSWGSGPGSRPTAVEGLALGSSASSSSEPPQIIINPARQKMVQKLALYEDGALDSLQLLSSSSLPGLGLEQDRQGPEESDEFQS
Procedure, shortened: (§1)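 Radiometric filter-binding (HotSpot) activity assay on isolated recombinant kinase, possibly truncated or catalytic domain only, in 20 mM Hepes pH 7.5, 10 mM MgCl2, 1 mM EGTA, 2 mM DTT, 1% DMSO. Compound preincubated 20 min with kinase and substrate, then ^33P-ATP added. Reaction 2 h at room temperature, read by P81 filter binding.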

IRAK4 = target: T2, IRAK4 (Homo sapiens, UniProt Q9NWZ3); test: RBC HotSpot Kinase Assay, IRAK4; type: biochemical; set-up: purchased Reaction Biology (RBC HotSpot Kinase Assay)
T2 sequence (Q9NWZ3 1-460): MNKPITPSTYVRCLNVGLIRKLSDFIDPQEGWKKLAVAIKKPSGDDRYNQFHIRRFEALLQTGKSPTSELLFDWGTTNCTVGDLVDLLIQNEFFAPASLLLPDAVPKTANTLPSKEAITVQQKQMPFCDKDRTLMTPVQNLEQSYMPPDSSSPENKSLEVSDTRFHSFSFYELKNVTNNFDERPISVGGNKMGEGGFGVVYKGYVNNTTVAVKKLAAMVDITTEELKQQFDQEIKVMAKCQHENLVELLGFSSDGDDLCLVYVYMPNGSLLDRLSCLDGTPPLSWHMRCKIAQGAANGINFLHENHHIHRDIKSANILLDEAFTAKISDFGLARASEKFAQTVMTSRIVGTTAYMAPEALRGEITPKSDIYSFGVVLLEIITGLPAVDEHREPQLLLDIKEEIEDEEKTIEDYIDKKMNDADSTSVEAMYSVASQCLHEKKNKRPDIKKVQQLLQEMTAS
Procedure, shortened: as §1

COc1cc2ncc(-c3cccc(N[C@H]4CNCC[C@@H]4F)n3)n2nc1C1CC1 [Compound 102, 6-(6-cyclopropyl-7-methoxyimidazo[1,2-b]pyridazin-3-yl)-N-((3S,4S)-4-fluoropiperidin-3-yl)pyridin-2-amine]
IC50 (MOLM14 D835Y cells; Homo sapiens, MOLM-14, 48 h): 0.034 µM | IC50 (IRAK1): 0.109 µM | IC50 (IRAK4): 0.001 µM

COc1cc2ncc(-c3nc(N[C@H]4CNCC[C@@H]4F)c(F)cc3F)n2nc1C(C)(C)O [Compound 128, 2-(3-(3,5-difluoro-6-(((3S,4S)-4-fluoropiperidin-3-yl)amino)pyridin-2-yl)-7-methoxyimidazo[1,2-b]pyridazin-6-yl)propan-2-ol]
IC50 (MOLM14 D835Y cells; Homo sapiens, MOLM-14, 48 h): 0.034 µM | IC50 (IRAK1): 0.129 µM | IC50 (IRAK4): 0.006 µM

COc1cc2ncc(-c3cccc(N[C@@H]4CCNC4)n3)n2nc1C1CC1 [Compound 97, (R)-6-(6-cyclopropyl-7-methoxyimidazo[1,2-b]pyridazin-3-yl)-N-(pyrrolidin-3-yl)pyridin-2-amine]
IC50 (MOLM14 D835Y cells; Homo sapiens, MOLM-14, 48 h): 0.034 µM | IC50 (IRAK1): 0.253 µM | IC50 (IRAK4): 0.002 µM

COc1cc2ncc(-c3cccc(N[C@H]4CNC[C@@H]4F)n3)n2nc1C1CC1 [Compound 96, 6-(6-cyclopropyl-7-methoxyimidazo[1,2-b]pyridazin-3-yl)-N-((3S,4S)-4-fluoropyrrolidin-3-yl)pyridin-2-amine]
IC50 (MOLM14 D835Y cells; Homo sapiens, MOLM-14, 48 h): 0.055 µM | IC50 (IRAK1): 0.153 µM | IC50 (IRAK4): 0.003 µM

COc1cc2ncc(-c3nc(N[C@H]4CNCC[C@@H]4F)c(F)cc3F)n2nc1C1CC1 [Compound 108, 6-(6-cyclopropyl-7-methoxyimidazo[1,2-b]pyridazin-3-yl)-3,5-difluoro-N-((3S,4S)-4-fluoropiperidin-3-yl)pyridin-2-amine]
IC50 (MOLM14 D835Y cells; Homo sapiens, MOLM-14, 48 h): 0.003 µM | IC50 (IRAK1): 0.005 µM | IC50 (IRAK4): 0.0006 µM

COc1cc2ncc(-c3nc(N[C@@H]4CCCNC4)c(F)cc3F)n2nc1C1CC1 [Compound 106, (R)-6-(6-cyclopropyl-7-methoxyimidazo[1,2-b]pyridazin-3-yl)-3,5-difluoro-N-(piperidin-3-yl)pyridin-2-amine]
IC50 (MOLM14 D835Y cells; Homo sapiens, MOLM-14, 48 h): 0.003 µM | IC50 (IRAK1): 0.015 µM | IC50 (IRAK4): 0.0008 µM

COc1cc2ncc(-c3cccc(N[C@H]4CNC[C@@H]4F)n3)n2nc1C(C)(O)C(F)(F)F (single isomer, unassigned; fast-eluting) [Compound 133]
IC50 (MOLM14 D835Y cells; 48 hours): 0.086 µM | IC50 (IRAK1): 3.32 µM | IC50 (IRAK4): < 0.0005 µM

F[C@H]1CNC[C@@H]1Nc1cccc(-c2cnc3ccc(-c4cnn5ccccc45)nn23)n1 [Compound 9, N-((3S,4S)-4-fluoropyrrolidin-3-yl)-6-(6-(pyrazolo[1,5-a]pyridin-3-yl)imidazo[1,2-b]pyridazin-3-yl)pyridin-2-amine]
IC50 (MOLM14 D835Y cells; Homo sapiens, MOLM-14, 48 h): 0.101 µM | IC50 (IRAK1): 0.081 µM | IC50 (IRAK4): 0.007 µM

c1cc(N[C@@H]2CCCNC2)nc(-c2cnc3ccc(-c4cnn5ccccc45)nn23)c1 [Compound 19, (R)-N-(piperidin-3-yl)-6-(6-(pyrazolo[1,5-a]pyridin-3-yl)imidazo[1,2-b]pyridazin-3-yl)pyridin-2-amine]
IC50 (MOLM14 D835Y cells; Homo sapiens, MOLM-14, 48 h): 0.402 µM | IC50 (IRAK1): 0.194 µM | IC50 (IRAK4): 0.003 µM

COc1cc2ncc(-c3nc(N[C@H]4CNC[C@@H]4F)c(F)cc3F)n2nc1C1CC1 [Compound 107, 6-(6-cyclopropyl-7-methoxyimidazo[1,2-b]pyridazin-3-yl)-3,5-difluoro-N-((3S,4S)-4-fluoropyrrolidin-3-yl)pyridin-2-amine]
IC50 (MOLM14 D835Y cells; Homo sapiens, MOLM-14, 48 h): 0.011 µM | IC50 (IRAK1): 0.003 µM | IC50 (IRAK4): < 0.0005 µM

COc1cc2ncc(-c3nc(N[C@H]4CNC[C@@H]4F)c(F)cc3F)n2nc1C(C)(C)O [Compound 126, 2-(3-(3,5-difluoro-6-(((3S,4S)-4-fluoropyrrolidin-3-yl)amino)pyridin-2-yl)-7-methoxyimidazo[1,2-b]pyridazin-6-yl)propan-2-ol]
IC50 (MOLM14 D835Y cells; Homo sapiens, MOLM-14, 48 h): 0.109 µM | IC50 (IRAK1): 0.135 µM | IC50 (IRAK4): 0.004 µM

COc1cc2ncc(-c3nc(N[C@@H]4CCCNC4)c(F)cc3F)n2nc1C(C)(C)O [Compound 127, (R)-2-(3-(3,5-difluoro-6-(piperidin-3-ylamino)pyridin-2-yl)-7-methoxyimidazo[1,2-b]pyridazin-6-yl)propan-2-ol]
IC50 (MOLM14 D835Y cells; Homo sapiens, MOLM-14, 48 h): 1.22 µM | IC50 (IRAK1): 0.146 µM | IC50 (IRAK4): 0.016 µM

COc1cc2ncc(-c3cccc(N[C@H]4CNC[C@@H]4C(F)(F)F)n3)n2nc1C1CC1 [Compound 99, 6-(6-cyclopropyl-7-methoxyimidazo[1,2-b]pyridazin-3-yl)-N-((3R,4S)-4-(trifluoromethyl)pyrrolidin-3-yl)pyridin-2-amine]
IC50 (MOLM14 D835Y cells; Homo sapiens, MOLM-14, 48 h): 0.017 µM | IC50 (IRAK1): 0.821 µM | IC50 (IRAK4): 0.0005 µM
